From patent US20070004010A1, “Engineered Enzymes and Their Use for Synthesis of Thioglycosides” (THE UNIVERSITY OF BRITISH COLUMBIA, priority 2002, published 2007)

T1: Cex E127A (Cellulomonas fimi, UniProt P07986, E168A)
T1 sequence (P07986 42-484 E168A): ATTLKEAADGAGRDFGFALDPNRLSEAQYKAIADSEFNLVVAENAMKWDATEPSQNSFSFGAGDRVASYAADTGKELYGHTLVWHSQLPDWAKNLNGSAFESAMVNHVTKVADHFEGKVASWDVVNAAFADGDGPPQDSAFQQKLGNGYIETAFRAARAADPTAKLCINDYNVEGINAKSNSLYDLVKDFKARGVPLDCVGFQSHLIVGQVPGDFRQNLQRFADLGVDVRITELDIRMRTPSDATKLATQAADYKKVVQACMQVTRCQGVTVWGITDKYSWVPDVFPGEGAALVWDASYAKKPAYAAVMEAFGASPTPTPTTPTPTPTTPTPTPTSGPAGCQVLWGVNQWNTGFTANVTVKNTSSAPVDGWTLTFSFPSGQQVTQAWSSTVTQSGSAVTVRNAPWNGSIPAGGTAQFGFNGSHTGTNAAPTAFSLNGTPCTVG


What was measured:
[1] = target: T2, Abg E171A (Agrobacterium sp., UniProt P12614, E171A); assay: Kinetic analysis of thioglycoligase reaction (DNP release) with Abg E171A; assay type: biochemical; conditions: acceptor; donor 2,4-DNP β-D-glucopyranoside (125 mM); 30° C., 50 mM NaPi, 145 mM NaCl, pH 7.1; calculated from the highest observed rate of DNP release
T2 sequence (P12614 whole entry E171A, looked up): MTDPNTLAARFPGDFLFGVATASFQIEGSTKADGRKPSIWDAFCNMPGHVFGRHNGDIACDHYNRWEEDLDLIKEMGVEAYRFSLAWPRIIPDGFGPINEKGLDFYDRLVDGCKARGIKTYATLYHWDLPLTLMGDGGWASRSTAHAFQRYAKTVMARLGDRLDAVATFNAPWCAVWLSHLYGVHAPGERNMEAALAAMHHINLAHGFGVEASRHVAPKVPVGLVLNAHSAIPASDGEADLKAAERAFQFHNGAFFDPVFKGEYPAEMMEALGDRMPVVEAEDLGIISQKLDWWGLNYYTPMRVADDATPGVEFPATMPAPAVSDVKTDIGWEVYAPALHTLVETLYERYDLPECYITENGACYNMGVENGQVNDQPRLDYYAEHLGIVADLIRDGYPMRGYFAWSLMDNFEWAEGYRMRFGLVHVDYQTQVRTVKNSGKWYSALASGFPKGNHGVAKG
Procedure: Kinetic analysis was performed with 2,4-DNP β-D-glucopyranoside (125 mM) as donor and with pNP 4-deoxy-4-thio-β-D-glucopyranoside as acceptor at 30° C. in 50 mM NaPi, 145 mM NaCl, pH 7.1 (FIG. 7). It has been shown previously, that the KM− value of the donor is extremely low (<1 μM), and that no donor substrate inhibition is seen. Enzymatic background hydrolysis of the donor together with acceptor substrate inhibition make it difficult to exactly determine K′M and k′cat, but it can be calculated from the highest observed rate of DNP release, that k′cat is higher than 50 min^−1.

[2] = target: T1, Cex E127A; assay: Functional donors and acceptors for Cex E127A; assay type: biochemical
[3] = system: Man2A E429A; assay: Control reaction with parent sugars as acceptors, DNP-Man as donor; assay type: biochemical, Cellulomonas fimi; conditions: acceptor for Man2A E429A in the presence of DNP-Man
[4] = target: T2, Abg E171A; assay type: biochemical; conditions: acceptor with Abg E171A in the presence of DNP-Glc as donor
[5] = system: Man2A E429A; assay: Competition study for evaluation of relative rates of transfer to S- and O-acceptors (HPLC); assay type: biochemical, Cellulomonas fimi; conditions: 6 vs pNP-Xyl, 5.5 mM each; donor DNP-Man; pH 6.8, RT; integration of HPLC peaks
Procedure: Arrows indicate the elution of the O-linked disaccharides, 10 is the S-linked disaccharide.
In order to assess the relative rates of transfer to the oxygen and sulfur nucleophiles in the case of Man 2A E429A we established a competition reaction in which equimolar amounts of pNP-Xyl and its 4-thio analogue 6 were incubated together with DNP-Man as donor and Man2A E429A (FIG. 3). When the concentration of donor was limiting (one third of the concentration of acceptors) we saw exclusive formation of the S-linked disaccharide 10 (a). However, upon addition of further donor to a final concentration twice that of the acceptors the O-linked disaccharides (indicated by arrows) were formed (b).
pNP-Xyl (5.5 mM), 6 (5.5 mM), DNP-Man (3.75 mM) and Man2A E429A (˜1 mg ml.) were incubated in phosphate buffer (50 mM, pH 6.8) for 3 h at RT. After removal of an aliquot DNP-Man was added to a final concentration of 22 mM. After 5 h at RT another aliquot was taken. The aliquots were diluted 1:3 with acetonitrile and centrifuged before applying to the HPLC. HPLC analysis was performed using a Waters 600E multisolvent delivery system with acetonitrile (A)/water (B) as mobile phase (linear gradient: 80% A→60% A in 15 min, flow: 1 ml min^−1), a Waters 2486 Dual λ Absorbance Detector (detection at 280 nm), a TOSO HAAS Amide 80 column (4.6×250 mm) and Millenium 3.20 software.

[6] = Thioglycoligase function of Cex acid/base mutant; assay type: biochemical, Cellulomonas fimi; conditions: mutation of the catalytic acid/base residue E127

Molecule | formation of disaccharide products [3] | formation of disaccharides [4] | further results
O=[N+]([O-])c1ccc(O[C@@H]2O[C@H](CO)[C@@H](S)[C@H](O)[C@H]2O)cc1 [compound 3, para-nitrophenyl 4-deoxy-4-thio-β-D-glucopyranoside] |  |  | k′cat [1]: higher than 50 min^−1; acceptor function [2]: Functional acceptors
O=[N+]([O-])c1ccc(O[C@@H]2OC[C@@H](O)[C@H](O)[C@H]2O)cc1 [pNP-Xyl, para-nitrophenyl β-D-xylopyranoside] | only very slowly | no formation of disaccharides | 
O=[N+]([O-])c1ccc(O[C@@H]2OC[C@@H](S)[C@H](O)[C@H]2O)cc1 [compound 6, p-Nitrophenyl 4-deoxy-4-thio-β-D-xylopyranoside] |  |  | transfer to the thiosugar acceptor faster than transfer to its oxygen analogue [5]: at least 100 fold
O=[N+]([O-])c1ccc(O[C@@H]2O[C@H](CO)[C@@H](O)[C@H](O)[C@H]2O)cc1 [pNP-Glc, para-nitrophenyl β-D-glucopyranoside] | only very slowly | no formation of disaccharides | 
Cex E127A: endo acting retaining β-glycosidase from Cellulomonas fimi (Cex) mutated at the catalytic acid/base residue E127 (protein, UniProt P07986 42-484, looked up, variant E127A) Exoglucanase/xylanase: ATTLKEAADGAGRDFGFALDPNRLSEAQYKAIADSEFNLVVAENAMKWDATEPSQNSFSFGAGDRVASYAADTGKELYGHTLVWHSQLPDWAKNLNGSAFESAMVNHVTKVADHFEGKVASWDVVNAAFADGDGPPQDSAFQQKLGNGYIETAFRAARAADPTAKLCINDYNVEGINAKSNSLYDLVKDFKARGVPLDCVGFQSHLIVGQVPGDFRQNLQRFADLGVDVRITELDIRMRTPSDATKLATQAADYKKVVQACMQVTRCQGVTVWGITDKYSWVPDVFPGEGAALVWDASYAKKPAYAAVMEAFGASPTPTPTTPTPTPTTPTPTPTSGPAGCQVLWGVNQWNTGFTANVTVKNTSSAPVDGWTLTFSFPSGQQVTQAWSSTVTQSGSAVTVRNAPWNGSIPAGGTAQFGFNGSHTGTNAAPTAFSLNGTPCTVG |  |  | thioglycoligase function [6]: functional thioglycoligase
